Laboratory results published in patent publication US20060093628A1, “Protein aggregate magnesium-ammonium phospholinoleate-palmitoleate anhydride immonomodulator, its production process and formulation” (priority 2004, published 2006).

Tests used:
[1] = test system: parvovirus and distemper virus; experiment: Treatment of dogs carrying parvovirus and distemper virus; format: in vivo
Text: a) Antiviral properties through immune response modulation.

plasmacytoma = experiment: Subcutaneously inoculated plasmacytoma in Balb/c mice; format: in vivo; conditions: 5.0 mg/kg intraperitoneal, 3 doses per week, 7 weeks
Text: (§1) b) Antitumoral properties through immune response modulation.

[2] = test system: spontaneous mammary carcinoma; experiment: Transplanted spontaneous mammary carcinoma in WAB/Not mice; format: in vivo; conditions: 5.0 mg/kg intraperitoneal, 3 doses per week, 7 weeks
Text: as §1

Walker 256 tumoral cells [3] = experiment: Walker 256 tumor in female Wistar rats; format: in vivo; conditions: daily subcutaneous doses of 0.5 mg/kg
Ehrlich ascitic tumor = Ehrlich ascitic tumor in Balb/c mice; format: in vivo; conditions: 5.0 mg/kg subcutaneous for 7 days
Procedure: Treatment with doses of 5.0 mg/kg of the compound of the present invention, subcutaneously administered for a period of 7 days to Balb/c mice which had been intraperitoneally inoculated with Ehrlich ascitic tumor inhibited 50% of the tumoral growth and increased by 50% the survival of the animals.

Walker 256 tumoral cells [4] = experiment: Walker 256 tumor in gamma-irradiated immunodepressed Wistar rats; format: in vivo; conditions: rats exposed to 4 Gy gamma radiation, subcutaneous administration
Text: c) Immunomodulatory properties.

[5] = test system: granulocyte-macrophage precursor cells (CFU-GM); experiment: Granulocyte-macrophage precursor cells (CFU-GM) in mice with Ehrlich ascitic tumor; format: in vivo, Balb/c mice
[6] = test system: granulocyte-macrophage precursor cells in the bone marrow; experiment: In vitro growth and differentiation of bone marrow granulocyte-macrophage precursor cells; format: cell-based; conditions: bone marrow from normal donor Balb/c mice
Lysteria monocytogenes [7] = experiment: Lethal Lysteria monocytogenes infection in Balb/c mice; format: in vivo
Lysteria monocytogenes [8] = experiment: In vitro antibacterial activity; format: cell-based
[9] = test system: lymphocytes and natural killer (NK) cells; experiment: Functional ability of immunocompetent cells in mice with Ehrlich ascitic tumor; format: in vivo, Balb/c mice; conditions: 5.0 mg/kg for 7 days
Procedure: (§2) Treatment of Balb/c mice, inoculated with Ehrlich ascitic tumor, with 5.0 mg/kg of the compound of the present invention for a period of 7 days was also able to modulate the functional ability of mature immunocompetent cells, supplying additional evidence about the action mechanisms of the compound. This treatment protocol stimulated the proliferative ability of lymphocytes and the cytotoxicity mediated by natural killer (NK) cells.

[10] = test system: cytokines (IL-2, IFN, IL-4, IL-10); experiment: Cytokines in ConA-stimulated splenic cell cultures from mice with Ehrlich ascitic tumor; format: in vivo, Balb/c mice; conditions: 5.0 mg/kg for 7 days
Procedure: as §2

cytokines (IL-2, IFN) = experiment: Cytokines in spleen cell cultures from mice infected with L. monocytogenes; format: in vivo, Balb/c mice; conditions: pre-treatment with 5.0 mg/kg; culture of spleen cells
Procedure: Levels of the same cytokines found in Balb/c mice infected with L. monocytogenes and subjected to pre-treatment with 5.0 mg/kg of the compound of the present invention supplied additional information about its biological activity. The increase in production of IL-2 e IFN- by the culture of spleen cells from these animals indicate a modulation of the inflammatory-like response, which is fundamental for eradication of the infection.

[11] = Toxicity in mice, single doses; format: in vivo
Text: (§3) e) In vivo toxicologic properties.

[12] = Toxicity in tufted capuchin monkey, 30 days; format: in vivo, tufted capuchin monkey (Cebus apella); conditions: doses up to 30 mg/kg
Text: as §3

[13] = Toxicity in Wistar rats, 90 days; format: in vivo; conditions: doses up to 100 mg/kg
Text: as §3

[14] = Immunotoxic properties in tufted capuchin monkey; set-up: species or system tufted capuchin monkey (Cebus apella); conditions: in vivo
Procedure: f) Immunotoxic properties. […] The following organs were analyzed: bone marrow, spleen, lymph nodes, tonsils, and renal gland e Peyer's patch.
The spleen presented an increase of secondary follicles in the white pulp.
However, these cell alterations, found in the anatomopathological examination of the spleen from animals treated with the compound of the present invention, cannot be considered pathological in character; rather, they are due to immune system modulation caused by the use of the compound of the present invention.

[15] = test system: 53 tumor cell cultures representing 8 distinct tumor types and leukemia
Text: Cytotoxicity of the compound of the present invention was studied in the range of 10^−4 to 10^−8 M in 53 tumor cell cultures representing 8 distinct tumor types (lung, colon, central nervous system, melanoma, ovary, kidney, prostate and mammary) and leukemia.

[16] = rat, in vivo, ip, 750 mg/kg
Procedure: The bioavailability of the compound of the present invention was evaluated in Wistar rats by administering a single intraperitoneal dose of 750 mg/kg.

[17] = splenic cells stimulated by ConA

protein aggregate of ammonium and magnesium phospholinoleate-palmitoleate anhydride [compound of the present invention]
white blood cell count ([1]; blood of treated dogs vs infected controls treated with saline only): significant increase
recovery rate ([1]; dogs carrying parvovirus and distemper virus): higher recovery rate
increase in survival (plasmacytoma): 50%
tumoral growth rate (plasmacytoma): significant decrease
increase in survival [2]: 50%
tumoral growth rate [2]: significant decrease
animals with tumoral regression (Walker 256 tumoral cells [3]): 50%
increase in survival (Ehrlich ascitic tumor): 50%
inhibition of tumoral growth (Ehrlich ascitic tumor): 50%
response to treatment (Walker 256 tumoral cells [4]): did not respond
CFU-GM count in the spleen and splenomegalia ([5]; 5.0 mg/kg for 7 days): significant reduction
myelopoiesis modulation ([5]; 5.0 mg/kg for 7 days before or after inoculation): particularly efficient
number of granulocyte-macrophage precursor cells in the bone marrow (CFU-GM) ([5]; 0.5 to 5.0 mg/kg subcutaneous for 7 days): dose-dependent increase
in vitro effects on growth and differentiation of granulocyte-macrophage precursor cells [6]: did not present in vitro effects
mice protected against lethal infection (Lysteria monocytogenes [7]; pre-treatment 0.5 mg/kg subcutaneous for 7 days): 30%
mice protected against lethal infection (Lysteria monocytogenes [7]; pre-treatment 5.0 mg/kg subcutaneous for 7 days): 40%
myeloprotection (Lysteria monocytogenes [7]; pre-treatment subcutaneous for 7 days): promoted myeloprotection
in vitro antibacterial activity (Lysteria monocytogenes [8]): does not display in vitro antibacterial activity
cytotoxicity mediated by natural killer (NK) cells [9]: stimulated
proliferative ability of lymphocytes [9]: stimulated
interleukin-4 (IL-4) levels [10]: No alteration
production of interleukin-10 (IL-10) ([10]; mice with tumors): significantly reduced
gamma-interferon (IFN-) [10, 17]: significant increase
interleukin-2 (IL-2) [10, 17]: significant increase
production of IFN- (cytokines (IL-2, IFN)): increase
production of IL-2 (cytokines (IL-2, IFN)): increase
toxic effects ([11]; single doses up to 2000 mg/kg): No toxic effects
hematological, biochemical, physiological and anatomopathological parameters ([11]; stated jointly for the mouse, monkey and rat studies, treated vs control animals): No significant variation
toxic effects [12]: No toxic effects
toxic effects [13]: No toxic effects
granulocytic series in the bone marrow [14]: slight activation
hematocrit and hemoglobin [14]: minor decrease
immunotoxic properties [14]: No immunotoxic properties
lymphocyte population [14]: small increase
red pulp of the spleen, anatomopathological examination [14]: Erytrophagocytosis was visible
secondary follicles in the white pulp of the spleen [14]: increase
total leucocytes, particularly polymorphonuclear neutrophils [14]: increase
cytotoxicity for tumor cells [15]: did not display cytotoxicity
plasma t1/2 [16]: about 2 h
